The text below walks through data of patent EP0472783A1, “Anti-tumor compositions and compounds” (PHARMACHEMIE B.V., priority 1990, dated 1992).

What all share (format): cell-based, human
Experiment [1] concerns MCF-7 mammary carcinoma (M cells). Description: PIT method in vitro cell growth inhibition, MCF-7. To be noted: amount which inhibits 50% of the cell growth; MCF-7 cells. As to the method:
(§1) The tests were carried out according to the method of R.van Lambalgen en P. Lelieveld, The PIT method: an automated in vitro technique for drug toxicity testing. Invest.
(§2) The ID50 values in ng/ml for the above compounds were determined according to the above mentioned procedure of van Lambalgen and Lelieveld.

The subject of experiment [2] is T24 bladder carcinoma (T cells). Description: PIT method in vitro cell growth inhibition, T24. To be noted: amount which inhibits 50% of the cell growth. The protocol:
as §1, §2

Experiment [3] has as its system WiDr colon tumor cells (W cells). Description: PIT method in vitro cell growth inhibition, WiDr. To be noted: amount which inhibits 50% of the cell growth. As to the method: as §1, §2
In experiment [4] the test system is A 204 rhabdomyosarcoma (A cells). Description: PIT method in vitro cell growth inhibition, A 204. To be noted: amount which inhibits 50% of the cell growth; A 204 cells. As to the method: as §1, §2
Experiment [5] has as its system IgR-37 melanoma (Z cells). The experiment can be described thus: PIT method in vitro cell growth inhibition, IgR-37. To be noted: amount which inhibits 50% of the cell growth; IgR-37 cells. The protocol:
as §1, §2

Take `N.N.[Cl][Pt][Cl]` [cis platium, cis-(NH3)2PtCl2]: the “ID50 values in ng/ml MCF-7” value in experiment [1] is 850 ng/mL. In experiment [2], the “ID50 values in ng/ml T24” value is 268 ng/mL. The “ID50 values in ng/ml WiDr” value in experiment [3] was found to be 624 ng/mL. Also, the “ID50 values in ng/ml A 204” value in experiment [4] was determined as 871 ng/mL. Further, in experiment [5], the “ID50 values in ng/ml IgR-37” value is 878 ng/mL.
